Results as given in patent US6468979B1, “Erythromycin derivatives with antibiotic activity” (Zambon Group S.p.A., priority 1998, dated 2002).
In brackets after ≈: the same amount, converted by molar mass.

Legend:
S. pneumoniae 1051 = assay: In vitro antibacterial activity (MIC), broth dilution micromethod; type: cell-based, Streptococcus pneumoniae; conditions: erythromycin-resistant strain; MHB with 5% horse serum, 37° C., 18 hours
Protocol: (§1) The minimum inhibitory concentrations (MIC), with respect to Gram-positive bacteria (erythromycin-sensitive and -resistant strains) and Gram-negative bacteria, were determined by means of the broth-scaler dilution micromethod in twin series [National Committee for Clinical Laboratory Standards, 1990; Methods for dilution antimicrobial susceptibility tests for bacteria that grow aerobically; Approved standards M7-A2-NCCLS, Villanova, Pa.], using Mueller Hinton Broth (MHB) as culture medium.
(§2) In the case of Streptococcus pneumoniae, the medium was supplemented with 5% horse serum.
(§3) Azithromycin [The Merck Index, XIIth Edition, No. 946) was used as reference macrolide.
(§4) The MIC values, expressed in μg/ml, were determined after incubating the microplates at 37° C. for 18 hours, by evaluating the lowest concentration of antibiotic capable of inhibiting bacterial growth.

S. pneumoniae 1047 = assay: as above; type: cell-based, Streptococcus pneumoniae; conditions: erythromycin-resistant strain; MHB with 5% horse serum, 37° C., 18 hours
Protocol: as §1, §2, §3, §4

S. pneumoniae 1035 = assay: as above; type: cell-based, Streptococcus pneumoniae; conditions: erythromycin-resistant strain; MHB with 5% horse serum, 37° C., 18 hours
Protocol: as §1, §2, §3, §4

S. coag. Neg. 845 = assay: as above; type: cell-based, Staphylococcus spp.; conditions: erythromycin-resistant strain; MHB, 37° C., 18 hours
Protocol: as §1, §3, §4

S. epidermis 60 = assay: as above; type: cell-based, Staphylococcus spp.; conditions: erythromycin-resistant (inducible) strain; MHB, 37° C., 18 hours
Protocol: as §1, §3, §4

S. specie 916 = assay: as above; type: cell-based, Staphylococcus spp.; conditions: erythromycin-resistant (inducible) strain; MHB, 37° C., 18 hours
Protocol: as §1, §3, §4

S. aureus 77 = assay: as above; type: cell-based, Staphylococcus aureus; conditions: erythromycin-resistant strain; MHB, 37° C., 18 hours
Protocol: as §1, §3, §4

S. aureus 929 = assay: as above; type: cell-based, Staphylococcus aureus; conditions: erythromycin-resistant strain; MHB, 37° C., 18 hours
Protocol: as §1, §3, §4

S. haemolyticus 161 = assay: as above; type: cell-based, Staphylococcus haemolyticus; conditions: erythromycin-resistant strain; MHB, 37° C., 18 hours
Protocol: as §1, §3, §4

[1] = system: Streptococcus pyogenes C203; assay: In vivo therapeutic efficacy in experimental pulmonary infection in mice; conditions: CD1 mice, death observed for 7 days, probit analysis; for PD50 1 hour after infection: single oral dose 1 hour after intranasal infection; for PD50 24 hours before infection: single oral dose 24 hours before intranasal infection
Protocol: The therapeutic efficacy, expressed as the 50% protective dose (PD50), of the compounds of formula (I) was evaluated in the experimental pulmonary infection induced in mice by Streptococcus pyogenes C203.
Charles River albino mice (strain CD1) weighing 23-25 g were used, kept in groups of 6 to a cage and fed normally with a standard diet and water ad libitum.
A suspension of Streptococcus pyogenes C203 (equal to about 10^8 CFU) in tryptone broth (0.05 ml) was administered intranasally to each mouse, anaesthetized with a mixture of ethyl ether and chloroform.
The compounds of formula I and the clarithromycin reference compounds were administered orally in a single dose, as a 0.5% suspension Methocel® 1 hour after the infection and 24 hours before the infection.
Observation of the death of the mice was continued for 7 days after the infection.
The PD50, expressed as μmol/kg, was calculated by means of probit analysis.

CC[C@H]1OC(=O)[C@H](C)[C@@H](O[C@H]2C[C@@](C)(OC)[C@@H](O)[C@H](C)O2)[C@H](C)[C@@H](O[C@@H]2O[C@H](C)C[C@H](N(C)C)[C@H]2O)[C@](C)(O)C[C@@H](C)/C(=N\OCCN(C)CCCCCCNCc2csc(-n3cccn3)n2)[C@H](C)[C@@H](O)[C@]1(C)O [Compound 11, Erythromycin A (E)-9-[O-[2-[methyl[6-[(2-pyrazol-1-ylthiazol-4-ylmethyl]amino]hexyl]amino]ethyl]oxime]]
MIC S. pneumoniae 1051 (S. pneumoniae 1051): 0.125 µg/mL (≈ 0.117 µM)
MIC S. pneumoniae 1047 (S. pneumoniae 1047): 0.5 µg/mL (≈ 0.468 µM)
MIC S. pneumoniae 1035 (S. pneumoniae 1035): 0.0625 µg/mL (≈ 0.0585 µM)
MIC S. coag. Neg. 845 (S. coag. Neg. 845): >64 µg/mL
MIC S. epidermis 60* (S. epidermis 60): 2 µg/mL (≈ 1.87 µM)
MIC S. specie 916* (S. specie 916): 8 µg/mL (≈ 7.49 µM)
MIC S. aureus 77 (S. aureus 77): >64 µg/mL
MIC S. aureus 929 (S. aureus 929): >64 µg/mL
MIC S. haemolyticus 161 (S. haemolyticus 161): >64 µg/mL
PD50 1 hour after infection [1]: 11.2 µmol/kg
PD50 24 hours before infection [1]: 25.4 µmol/kg

CC[C@H]1OC(=O)[C@H](C)[C@@H](O[C@H]2C[C@@](C)(OC)[C@@H](O)[C@H](C)O2)[C@H](C)[C@@H](O[C@@H]2O[C@H](C)C[C@H](N(C)C)[C@H]2O)[C@](C)(O)C[C@@H](C)/C(=N\OCCN(C)CCCCCCNCc2csc(-n3ccnc3)n2)[C@H](C)[C@@H](O)[C@]1(C)O [Compound 6]
MIC S. pneumoniae 1051 (S. pneumoniae 1051): 0.25 µg/mL (≈ 0.234 µM)
MIC S. pneumoniae 1047 (S. pneumoniae 1047): 1 µg/mL (≈ 0.936 µM)
MIC S. pneumoniae 1035 (S. pneumoniae 1035): 0.5 µg/mL (≈ 0.468 µM)
MIC S. coag. Neg. 845 (S. coag. Neg. 845): >64 µg/mL
MIC S. epidermis 60* (S. epidermis 60): 2 µg/mL (≈ 1.87 µM)
MIC S. specie 916* (S. specie 916): 4 µg/mL (≈ 3.74 µM)
MIC S. aureus 77 (S. aureus 77): >64 µg/mL
MIC S. aureus 929 (S. aureus 929): >64 µg/mL
MIC S. haemolyticus 161 (S. haemolyticus 161): >64 µg/mL
PD50 1 hour after infection [1]: 10.1 µmol/kg
PD50 24 hours before infection [1]: 16.0 µmol/kg
